Patent US10695352B2, “Combination therapy for treating malignancies” (Celgene Corporation, priority 2015, dated 2020)
Like-named read-outs stand apart in the source and are kept apart here.

Assays:
TF1 IDH2/R140Q cells [1] = conditions: for RNA expression of differentiation markers KLF1 and HBG: concurrent schedule; for increase in HBG gene expression: COMPOUND 1 0.2 μM, single agents or combination
Procedure: FIG. 2A depicts the effect of the combination of azacitidine and COMPOUND 1 used sequentially on differentiation markers. […] Treated cells were subjected to qRT-PCR (ii) and to HBG qRT-PCR (iii). FIG. 2B depicts the effect of the combination of azacitidine and COMPOUND 1 used concurrently on differentiation markers. […] Treated cells were subjected to qRT-PCR (ii) and to HBG qRT-PCR (iii).
(§1) Measures of cell differentiation, growth and death were evaluated in an engineered TF-1 erythroleukemia cells overexpressing the IDH2/R140Q allele or the empty vector control TF-1/pLVX (Wang et al., Science 340:622-626, 2013). The cells were grown in RPMI containing HEPES and L-glutamine (Lonza 12-115F), 10% FBS (HyClone SH30088.03), Pen/Strep (Life Technologies 15070-063), G418: final concentration 500 μg/ml (Life Technologies 10131-027); GM-CSF: final concentration 5 ng/ml (R&D 215-GM-050). Only newly grown cells were used. G418 and GM-CSF were added fresh to media each time cells were passaged. Media was changed every 2-3 days by pelleting cells and resuspending in fresh media or by adding 2 ml of cells to 10 ml of fresh media. When cells were treated with a compound, the media was changed by pelleting cells to ensure proper concentration of the compound.
The RNA was isolated from cells by RNA easy kit (obtained from Qiagen). 500 ng of RNA was used to make cDNA that was subjected to real-time qPCR to detect fetal hemoglobin (HBG) and KLF-1 gene expression. The RNA easy kit was obtained from Qiagen. cDNA was made from Superscript VILO kit (Life technologies). Taqman probes were obtained from Applied Biosciences.
(§2) Measures of cell differentiation, growth and death were evaluated in TF1-R140Q cells, using an in vitro EPO differentiation assay and dose-schedule paradigms represented in FIG. 1. Cells were treated with vehicle, azacitidine alone, COMPOUND 1 alone, or the combination of azacitidine and COMPOUND 1. In the sequential schedule, cells were pre-treated with azacitidine for three days before adding COMPOUND 1. In the concurrent schedule, cells were co-treated with azacitidine and COMPOUND 1 throughout the assay.

TF1 IDH2/R140Q cells [2] = conditions: for hemoglobin production (coloration/hemoglobinization of cell pellets): day 14, COMPOUND 1 0.2 and 1 μM, azacitidine 0.1 and 0.3 μM; for hemoglobin production (red color of cell pellets): day 18, COMPOUND 1 0.2 μM and 1.0 μM
Excerpt: FIG. 1 in section A depicts COMPOUND 1 and azacitidine (AZA) combination schedule and dosing paradigms for sequential treatment of: 3 days (QDx3) of pre-treatment with azacitidine followed by treatment with the COMPOUND 1 for one week and erythropoietin (EPO)+COMPOUND 1 for another week. The cells were harvested on Day 18 and subjected to various endpoint assays for monitoring differentiation and death. FIG. 1, in section B depicts COMPOUND 1 and azacitidine combination schedule and dosing paradigms for concurrent treatment of: treatment for 7 days with the combination of azacitidine and COMPOUND 1 followed by 7 days of the treatment with azacitidine, COMPOUND 1 and EPO. The cells were harvested on Day 14 and subjected to various endpoint assays for monitoring differentiation and death.
as §1
F1/pLVX and TF1 IDH2/R140Q cells (100,000 cells/ml) were pretreated for 7 days with COMPOUND 1, azacitidine or combination thereof (medium was changed every 2 days) and washed with PBS to remove residual GM-CSF. Cells were induced to differentiate using EPO (2 unit/ml) in the presence or absence of COMPOUND 1. Induction continued for 7 days and the cell pellets were collected and imaged for hemoglobinization content (as a surrogate for differentiation into blood lineage).
as §2

TF1-R140Q cells [3] = experiment: Hematopoietic stem cell and blast content determination (CD34, CD38, FACS); assay type: cell-based; conditions: for CD34+/CD38+ and CD34+/CD38− cell populations: end of EPO-differentiation assay; for decrease of hematopoietic progenitor cells (CD34+/CD38+): sequential treatment, COMPOUND 1 0.2 μM, azacitidine 0.1 μM, single agents or combination
Procedure: Flow cytometry analysis was performed for sequential and concurrent schedules. Hematopoietic progenitor cells (CD34+/CD38+) (i) and stem cells (CD34+/CD38−) (ii) populations were normalized to DMSO+EPO and plotted. Values for population percentage decreases are shown, with those in red font depicting greater than additive effect with the combination as compared to AZA or COMPOUND 1 as single agents.
Cells were blocked in 10×BSA and diluted with MACS rinsing solution to 1× concentration for 15 min (staining buffer, BD Biosciences). Supernatant was removed by spinning. 10 μl of anti-CD34 FITC and anti-CD38 APC antibodies (each in staining buffer) were added. Mouse IgG2a FITC and IgG2a APC were used as isotype controls. Cells were stained for 10 min in dark, the solution was spinned to remove supernatant, the cells were resuspended in 300 μl of staining buffer and proceed to fluorescence-activated cell sorting (FACS).
The hematopoietic stem (CD34+/CD38−) and progenitor (CD34+/CD38+) cell populations were quantified at the end of the EPO-differentiation assay (FIGS. 3 and 8). As single agents, both azacitidine and COMPOUND 1 reduced CD34+/CD38+(FIG. 3i) and CD34+/CD38− (FIG. 3ii) cell populations. […] For example, COMPOUND 1 (0.2 μM) and azacitidine (0.1 μM) as single agents decreased hematopoietic progenitor cells (CD34+/CD38+) by 32% and 7%, respectively, with sequential treatment, while the combination of azacitidine (0.1 μM) and COMPOUND 1 (0.2 μM) decreased the hematopoietic progenitor cell population by 64% (FIG. 3i).

TF-1 R140Q cells = experiment: Real-time growth and apoptosis (Caspase 3/7 dye) on IncuCyte Zoom; assay type: cell-based; conditions: for cell growth: COMPOUND 1 1-10 μM
Procedure: The TF-1 R140Q cells were pre-treated in bulk in flasks with 1 μM of QDx3 azacitidine and then plated with COMPOUND 1 concentrations of 10, 3 and 0.3 μM and Caspase 3/7 dye (obtained from Essen Biosciences) to monitor real-time growth and apoptosis on IncuCyte Zoom up to 104 hrs.
The TF-1 R140Q cells were plated with the combination of azacitidine (1 and 0.3 μM) and COMPOUND 1 (1 μM) and imaged for real-time growth and apoptosis on IncuCyte Zoom up to 104 hrs.
A real-time death analysis was performed using IncuCyte Zoom (FIGS. 5 and 6).

TF1-R140Q cells [4] = experiment: Annexin V/7-AAD flow cytometry cell death analysis; assay type: cell-based; conditions: concurrent dose-schedule regimen; average values across dose concentrations
Procedure: Annexin V and 7-AAD flow cytometry analysis was performed for sequential (day 18) and concurrent (day 14) dosing schedules. Populations were normalized to DMSO+EPO and fold change of percent Annexin V+ and/or 7-AAD+ was plotted.
Cell death was analyzed via Annexin V/7-AAD flow cytometry at the end of the EPO-differentiation assay (FIGS. 4 and 9). In the sequential dose-schedule regimen, there was no induction (<2-fold) of death (AnnexinV+ and/or 7AAD+) with a single agent. In the concurrent dose-schedule regimen, azacitidine and COMPOUND 1 as single agents increased the percentage of AnnexinV+ and/or 7AAD+ cells by 3.4-fold and 3.5-fold (average values across dose concentrations), respectively.

[5] = cited from earlier work
[6] = oral azacitidine; cited from earlier work
[7] = sequential experiment, azacitidine 1 μM

SMILES	RNA expression of differentiation markers KLF1 and HBG (TF1 IDH2/R140Q cells [1])	increase in HBG gene expression (TF1 IDH2/R140Q cells [1]; concurrent, azacitidine 1 μM)	increase in HBG gene expression (TF1 IDH2/R140Q cells [1]; sequential, azacitidine 0.3 μM)	hemoglobin production (coloration/hemoglobinization of cell pellets) (TF1 IDH2/R140Q cells [2]; concurrent dosing regimen)	time to observe increased red color of cells (haem production) post-EPO (TF1 IDH2/R140Q cells [2]; sequential schedule)	hemoglobin production (red color of cell pellets) (TF1 IDH2/R140Q cells [2]; sequential schedule)	CD34+/CD38+ and CD34+/CD38− cell populations (TF1-R140Q cells [3])	decrease of hematopoietic progenitor cells (CD34+/CD38+) (TF1-R140Q cells [3])	cell growth (TF-1 R140Q cells; [7])	caspase 3/7 death measure (TF-1 R140Q cells; summary, single agent, or concurrent combination)	increase in percentage of AnnexinV+ and/or 7AAD+ cells (TF1-R140Q cells [4])	solubility ([5]; dimethylsulfoxide (DMSO))	solubility ([5]; ethanol/water (50/50), methanol/water (50/50) and methanol)	solubility ([5]; water)	cell death as evidenced by decreased cell pellet sizes (TF1 IDH2/R140Q cells [2]; concurrent dosing regimen, azacitidine 1 μM)	maximum tolerated dose [6]	apoptosis (TF-1 R140Q cells; [7])	solubility ([5]; acetone, ethanol and methyl ketone)	solubility ([5]; ethanol/water (50/50), propylene glycol and polyethylene glycol)	solubility ([5]; water, water-saturated octanol, 5% dextrose in water, N-methyl-2-pyrrolidone, normal saline and 5% Tween 80 in water)
CC(C)(O)CNc1nc(Nc2ccnc(C(F)(F)F)c2)nc(-c2cccc(C(F)(F)F)n2)n1 [COMPOUND 1, 2-methyl-1-[(4-[6-(trifluoromethyl)pyridin-2-yl]-6-{[2-(trifluoromethyl)pyridin-4-yl]amino}-1,3,5-triazin-2-yl)amino]propan-2-ol]	Dose-dependent increases	2.5 fold	241 fold	increased hemoglobin production upon EPO differentiation in a dose-dependent manner	7 days	increased hemoglobin production in a dose-dependent manner	reduced	32%	no effect on cell growth	no effect	3.5 fold									
Nc1ncn([C@H]2C[C@H](O)[C@@H](CO)O2)c(=O)n1 [Decitabine, 4-amino-1-(2-deoxy-β-D-erythro-pentofuranosyl)-1,3,5-triazin-2(1H)one]												soluble	slightly soluble	sparingly soluble						
Nc1ncn([C@@H]2O[C@H](CO)[C@@H](O)[C@H]2O)c(=O)n1 [azacitidine, 4-amino-1-O-D-ribofuranozyl-s-triazin-2(1H)-one]	Dose-dependent increases	7.1 fold	92 fold	increased hemoglobin production		little or no effect on cell pellet color	reduced	7%	reduced growth		3.4 fold	soluble			cell death occurred	480 mg	increased apoptosis	insoluble	slightly soluble	sparingly soluble
